Measured values from US6344344B1, “Method for producing uridine-5'-monophosphate by fermentation using mutant strains of coryneform bacteria” (Ajinomoto Co., Inc., priority 1999, dated 2002).
Where two headings read alike, the source gives them in different places.

Legend:
Format in all cases: cell-based
[1] = tested on: Corynebacterium ammoniagenes VKPM B-6307; details: for Growth of the strains B-6307: basal agar medium A; for Growth of the strain VKPM B-6307 With addition (medium B): medium B (guanine, arginine, casamino acid added)
[2] = tested on: Corynebacterium ammoniagenes LK 75-15 (VKPM B-7812); assay: Growth of the strain in the presence of pyrimidine analogues
Excerpt: (§1) Extent of resistance of this strain to various pyrimidine analogues as well as that of the parent strains LK 40-2 and LK 75-15 is shown in Table 11.

[3] = tested on: Corynebacterium ammoniagenes LK 75-66 (VKPM B-7813); assay: as above
Excerpt: as §1

[4] = tested on: Corynebacterium ammoniagenes LK 75-15 (VKPM B-7812); assay: as above; remark: listed apart in the source
[5] = tested on: Corynebacterium ammoniagenes LK 40-2 (VKPM B-7811); assay: as above
Protocol: Corynebacterium ammoniagenes VKPM B-6307 was treated with 50 μg/ml of NTG for 20 minutes followed by ampicillin-enrichment procedure for obtaining mutants which could not utilize uridine effectively as a sole carbon source (uridine was added into liquid medium A of Table 2 instead of glucose). The obtained mutant cells were plated on a medium B of Table 2 supplemented with guanine (100 μg/ml), arginine (500 μg/ml), casamino acids (200 μg/ml) and 100 μg/ml of 5-fluorouridine.
The inoculated plates were incubated at 30° C. for 3 days.
The extent of resistance to various pyrimidine analogues of this strain as well as that of the parent strain VKPM B-6307 is shown in Table 4.
as §1

[6] = tested on: Corynebacterium ammoniagenes ATCC 6872; assay: as above; details: basal agar medium A
[7] = medium B with 100 μg/ml analogue, 30° C., 3 days

O=c1cc[nH]c(=S)[nH]1 [2-Thiouracil]
Growth of the strain B-6307 ([1]; Table 4, analogue 1000 μg/ml): −
Growth of the strain B-6307 ([1]; Table 8, analogue 1000 μg/ml): −
Growth of the strains B-6307 ([1]; analogue 500 μg/ml): +
Growth of the strains B-6307 ([1]; analogue 1000 μg/ml): +
Growth of the strains B-6307 ([1]; analogue 3000 μg/ml): +
Growth of the strains B-6307 ([1]; analogue 5000 μg/ml): +
Growth of the Strain LK 75-15 ([2]; Table 11, analogue 1000 μg/ml): +
Growth of the Strain LK 75-66 ([3]; Table 11, analogue 1000 μg/ml): +
Growth of the Strain LK 75-15 ([4]; Table 8, analogue 1000 μg/ml): +
Growth of the strain LK 40-2 ([5]; Table 4, analogue 1000 μg/ml): +
Growth of the strain LK 40-2 ([5]; Table 11, analogue 1000 μg/ml): +
Growth of the strains ATCC6872 ([6]; analogue 500 μg/ml): −
Growth of the strains ATCC6872 ([6]; analogue 1000 μg/ml): −
Growth of the strains ATCC6872 ([6]; analogue 3000 μg/ml): −
Growth of the strains ATCC6872 ([6]; analogue 5000 μg/ml): −

O=c1[nH]cc(F)c(=O)[nH]1 [5-Fluorouracil]
Growth of the strain B-6307 ([1]; Table 4, analogue 100 μg/ml): −
Growth of the strain B-6307 ([1]; Table 4, analogue 300 μg/ml): −
Growth of the strain B-6307 ([1]; Table 4, analogue 500 μg/ml): −
Growth of the strain B-6307 ([1]; Table 4, analogue 1000 μg/ml): −
Growth of the strain B-6307 ([1]; Table 8, analogue 100 μg/ml): −
Growth of the strain B-6307 ([1]; Table 8, analogue 300 μg/ml): −
Growth of the strain B-6307 ([1]; Table 8, analogue 500 μg/ml): −
Growth of the strain B-6307 ([1]; Table 8, analogue 1000 μg/ml): −
Growth of the strains B-6307 ([1]; analogue 50 μg/ml): +
Growth of the strains B-6307 ([1]; analogue 100 μg/ml): +
Growth of the strain VKPM B-6307 No addition (medium A) ([1]; analogue 100 μg/ml): +
Growth of the strain VKPM B-6307 With addition (medium B) ([1]; analogue 100 μg/ml): −
Growth of the strains B-6307 ([1]; analogue 200 μg/ml): +
Growth of the strain VKPM B-6307 No addition (medium A) ([1]; analogue 200 μg/ml): +
Growth of the strain VKPM B-6307 With addition (medium B) ([1]; analogue 200 μg/ml): −
Growth of the strain VKPM B-6307 No addition (medium A) ([1]; analogue 500 μg/ml): +
Growth of the strain VKPM B-6307 With addition (medium B) ([1]; analogue 500 μg/ml): −
Growth of the strains B-6307 ([1]; analogue 600 μg/ml): +
Growth of the strain VKPM B-6307 No addition (medium A) ([1]; analogue 1000 μg/ml): +
Growth of the strain VKPM B-6307 With addition (medium B) ([1]; analogue 1000 μg/ml): −
Growth of the Strain LK 75-15 ([2]; Table 11, analogue 100 μg/ml): +
Growth of the Strain LK 75-15 ([2]; Table 11, analogue 300 μg/ml): −
Growth of the Strain LK 75-15 ([2]; Table 11, analogue 500 μg/ml): −
Growth of the Strain LK 75-15 ([2]; Table 11, analogue 1000 μg/ml): −
Growth of the Strain LK 75-66 ([3]; Table 11, analogue 100 μg/ml): +
Growth of the Strain LK 75-66 ([3]; Table 11, analogue 300 μg/ml): +
Growth of the Strain LK 75-66 ([3]; Table 11, analogue 500 μg/ml): −
Growth of the Strain LK 75-66 ([3]; Table 11, analogue 1000 μg/ml): −
Growth of the Strain LK 75-15 ([4]; Table 8, analogue 100 μg/ml): +
Growth of the Strain LK 75-15 ([4]; Table 8, analogue 300 μg/ml): −
Growth of the Strain LK 75-15 ([4]; Table 8, analogue 500 μg/ml): −
Growth of the Strain LK 75-15 ([4]; Table 8, analogue 1000 μg/ml): −
Growth of the strain LK 40-2 ([5]; Table 4, analogue 100 μg/ml): +
Growth of the strain LK 40-2 ([5]; Table 4, analogue 300 μg/ml): +
Growth of the strain LK 40-2 ([5]; Table 4, analogue 500 μg/ml): +
Growth of the strain LK 40-2 ([5]; Table 4, analogue 1000 μg/ml): +
Growth of the strain LK 40-2 ([5]; Table 11, analogue 100 μg/ml): +
Growth of the strain LK 40-2 ([5]; Table 11, analogue 300 μg/ml): +
Growth of the strain LK 40-2 ([5]; Table 11, analogue 500 μg/ml): +
Growth of the strain LK 40-2 ([5]; Table 11, analogue 1000 μg/ml): +
Growth of the strains ATCC6872 ([6]; analogue 50 μg/ml): −
Growth of the strains ATCC6872 ([6]; analogue 100 μg/ml): −
Growth of the strains ATCC6872 ([6]; analogue 200 μg/ml): −
Growth of the strains ATCC6872 ([6]; analogue 600 μg/ml): −

O=c1[nH]c(=O)n([C@@H]2O[C@H](CO)[C@@H](O)[C@H]2O)cc1F [5-Fluouridine]
Growth of the strain B-6307 ([1]; Table 4, analogue 100 μg/ml): −
Growth of the strain B-6307 ([1]; Table 4, analogue 300 μg/ml): −
Growth of the strain B-6307 ([1]; Table 4, analogue 500 μg/ml): −
Growth of the strain B-6307 ([1]; Table 4, analogue 1000 μg/ml): −
Growth of the strain B-6307 ([1]; Table 8, analogue 100 μg/ml): −
Growth of the strain B-6307 ([1]; Table 8, analogue 300 μg/ml): −
Growth of the strain B-6307 ([1]; Table 8, analogue 500 μg/ml): −
Growth of the strain B-6307 ([1]; Table 8, analogue 1000 μg/ml): −
Growth of the strains B-6307 ([1]; analogue 100 μg/ml): +
Growth of the strain VKPM B-6307 No addition (medium A) ([1]; analogue 100 μg/ml): +
Growth of the strain VKPM B-6307 With addition (medium B) ([1]; analogue 100 μg/ml): −
Growth of the strains B-6307 ([1]; analogue 200 μg/ml): +
Growth of the strain VKPM B-6307 No addition (medium A) ([1]; analogue 200 μg/ml): +
Growth of the strain VKPM B-6307 With addition (medium B) ([1]; analogue 200 μg/ml): −
Growth of the strains B-6307 ([1]; analogue 400 μg/ml): +
Growth of the strain VKPM B-6307 No addition (medium A) ([1]; analogue 500 μg/ml): +
Growth of the strain VKPM B-6307 With addition (medium B) ([1]; analogue 500 μg/ml): −
Growth of the strains B-6307 ([1]; analogue 600 μg/ml): +
Growth of the strain VKPM B-6307 No addition (medium A) ([1]; analogue 1000 μg/ml): +
Growth of the strain VKPM B-6307 With addition (medium B) ([1]; analogue 1000 μg/ml): −
growth of the parent strain on supplemented medium [1, 7]: could not grow
Growth of the Strain LK 75-15 ([2]; Table 11, analogue 100 μg/ml): +
Growth of the Strain LK 75-15 ([2]; Table 11, analogue 1000 μg/ml): −
Growth of the Strain LK 75-66 ([3]; Table 11, analogue 100 μg/ml): +
Growth of the Strain LK 75-66 ([3]; Table 11, analogue 300 μg/ml): +
Growth of the Strain LK 75-66 ([3]; Table 11, analogue 500 μg/ml): +
Growth of the Strain LK 75-66 ([3]; Table 11, analogue 1000 μg/ml): −
Growth of the Strain LK 75-15 ([4]; Table 8, analogue 100 μg/ml): +
Growth of the Strain LK 75-15 ([4]; Table 8, analogue 300 μg/ml): +
Growth of the Strain LK 75-15 ([4]; Table 8, analogue 500 μg/ml): −
Growth of the Strain LK 75-15 ([4]; Table 8, analogue 1000 μg/ml): −
Growth of the Strain LK 75-15 ([4]; Table 11, analogue 300 μg/ml): +
Growth of the Strain LK 75-15 ([4]; Table 11, analogue 500 μg/ml): −
Growth of the strain LK 40-2 ([5]; Table 4, analogue 100 μg/ml): +
Growth of the strain LK 40-2 ([5]; Table 4, analogue 300 μg/ml): +
Growth of the strain LK 40-2 ([5]; Table 4, analogue 500 μg/ml): +
Growth of the strain LK 40-2 ([5]; Table 4, analogue 1000 μg/ml): +
Growth of the strain LK 40-2 ([5]; Table 11, analogue 100 μg/ml): +
Growth of the strain LK 40-2 ([5]; Table 11, analogue 300 μg/ml): +
Growth of the strain LK 40-2 ([5]; Table 11, analogue 500 μg/ml): +
Growth of the strain LK 40-2 ([5]; Table 11, analogue 1000 μg/ml): +
growth of strain LK 40-2 on supplemented medium [5, 7]: capable of growing
Growth of the strains ATCC6872 ([6]; analogue 100 μg/ml): −
Growth of the strains ATCC6872 ([6]; analogue 200 μg/ml): −
Growth of the strains ATCC6872 ([6]; analogue 400 μg/ml): −
Growth of the strains ATCC6872 ([6]; analogue 600 μg/ml): −

O=c1cn[nH]c(=O)[nH]1 [6-Azauracil]
Growth of the strain B-6307 ([1]; Table 4, analogue 1000 μg/ml): −
Growth of the strain B-6307 ([1]; Table 8, analogue 1000 μg/ml): −
Growth of the strains B-6307 ([1]; analogue 500 μg/ml): +
Growth of the strains B-6307 ([1]; analogue 1000 μg/ml): +
Growth of the strains B-6307 ([1]; analogue 3000 μg/ml): +
Growth of the strains B-6307 ([1]; analogue 5000 μg/ml): +
Growth of the Strain LK 75-15 ([2]; Table 11, analogue 1000 μg/ml): +
Growth of the Strain LK 75-66 ([3]; Table 11, analogue 1000 μg/ml): +
Growth of the Strain LK 75-15 ([4]; Table 8, analogue 1000 μg/ml): +
Growth of the strain LK 40-2 ([5]; Table 4, analogue 1000 μg/ml): +
Growth of the strain LK 40-2 ([5]; Table 11, analogue 1000 μg/ml): +
Growth of the strains ATCC6872 ([6]; analogue 500 μg/ml): −
Growth of the strains ATCC6872 ([6]; analogue 1000 μg/ml): −
Growth of the strains ATCC6872 ([6]; analogue 3000 μg/ml): −
Growth of the strains ATCC6872 ([6]; analogue 5000 μg/ml): −
